From EP0174571A2, “Derivatives of amino acids, process for their preparation and pharmaceutical compositions” (BOEHRINGER INGELHEIM KG, priority 1984, dated 1986)

Experiments:
[1] = tested on: narkotisierten Ratte; assay: Blood pressure lowering in the anaesthetised rat after angiotensin I pressor stimulus; type: in vivo; conditions: 0,3 mg/kg i.v.; blood pressure raised beforehand with 0,1 mg/kg Angiotensin I i.v.; long lasting
Procedure: So erzeugt das N-[N-(3-Phenyl-2-S-mercaptopropanoyl)-S-alanyl]-S-prolin an der narkotisierten Ratte in einer Dosierung von 0,3 mg/kg i.v. eine lang anhaltende Blutdrucksenkung von 67 %, wenn man vorher durch eine i.v.-Gabe von 0,1 mg/kg Angiotensin I den Blutdruck steigert.

[2] = tested on: Kaninchen; assay: Blood pressure test in the rabbit (carotid artery); type: in vivo; conditions: 1 mg/kg i.v.; blood pressure from the carotid
Procedure: Am Kaninchen (Blutdruckversuch aus der Carotis) wird nach Gabe von 1 mg/kg der Substanz, i.v., eine Blutdrucksenkung von 37 mm beobachtet.

CC(NC(=O)C(S)Cc1ccccc1)C(=O)N1CCCC1C(=O)O (centres unmarked) [Beispiel 1, N-[N-(3-Phenyl-2-S-mercatopropanoyl)-S-alanyl]-S-prolin]
Blutdrucksenkung [1]: 67% | Blutdrucksenkung [2]: 37 mm
